Measurements reported in patent US7732504B2, “Functionalized photoinitiators” (Ciba Specialty Chemicals Corporation, priority 2004, dated 2010).

Tests used:
[1] = Curing of a blue offset printing ink on white paper (maximum rate of passage, 80 W/cm mercury lamp); details: for curing rate (m/min) for surface cure / curing rate (m/min) for through cure: blue offset ink 1.5 g/m^2 on white paper, 80 W/cm mercury lamp
Description: Curing of a Blue Offset Printing Ink on White Paper
(§1) A photocurable blue offset printing ink is prepared in accordance with the following formulation: […]
(§2) The above components are grounded down to a stock paste. Portions of the stock paste are mixed with the photoinitiators indicated in the table (% by weight on the stock paste). The solubility of the initiator in the formulation is rated as good (+), acceptable (±) or bad (−) and the results shown in Table 1.
The blue printing ink thus obtained is applied with 1.5 g/m^2 (˜1.5 μm thickness) on white paper using a Prüfbau laboratory printing equipment. The samples are exposed in an irradiation apparatus with a 80 W/cm mercury lamp (IST). The rate of passage of the sample through the irradiation apparatus is thereby increased continuously until adequate curing no longer occurs. The odor of the cured film is rated on a scale from 1 (odorless) to 3 (strong odor).

[2] = Curing of a blue flexo printing ink on a white polyethylene foil (maximum rate of passage, 120 W/cm mercury lamp); details: conc 6.0 %, blue flexo ink on corona treated white polyethylene foil
Description: Curing of a Blue Flexo Printing Ink on a White Polyethylene Foil
(§3) A photocurable blue flexo printing ink is prepared in accordance with the following formulation: […]
as §2, with “2.” for “1.”
The blue printing ink thus obtained is applied with […] 1.5 μm thickness on a corona treated white polyethylene foil using a Prüfbau laboratory printing equipment. The samples are exposed in an irradiation apparatus with a 120 W/cm mercury lamp (IST). The rate of passage of the sample through the irradiation apparatus is thereby increased continuously until adequate curing no longer occurs. The adhesion of the cured film to the foil is measure by the Tesa tape test.

[3] = Solubility of the initiator in the blue flexo printing ink formulation; type: physicochemical; design: key: good (+); acceptable (±); bad (−); details: photoinitiator conc 6.0 % by weight on the stock paste
Description: as §3
26.9 g of IRR 440 (flexo basic resin)
19.0 g of OTA 480 (acrylated trifunctional resin, UCB, Belgium)
18.0 g of Ebecryl® 645 (modified diacrylate of Bisphenol A epoxy resin diluted with 25% of TPGDA, from UCB, Belgium)
13.0 g of HDDA (1,6-hexanediol diacrylate)
10.0 g of Ebecryl® 220 (urethane acrylate from UCB, Belgium)
1.3 g of Ebecryl® 168 (methacrylated acidic compound from UCB, Belgium)
0.7 g of DC 57 (Leveling agent)
11.1 g Irgalit blue GLO (Cu-phthalocyanine pigment from Ciba Specialty Chemicals)
as §2, with “2.” for “1.”

[4] = Solubility of the initiator in the blue offset printing ink formulation; type: physicochemical; design: key: good (+); acceptable (±); bad (−)
Description: as §1
18.3 g of Ebecryl® 1608 (UCB, Belgium)
18.3 g of Ebecryl® 657 (polyester acrylate from UCB, Belgium)
20.0 g of Ebecryl® 220 (urethane acrylate from UCB, Belgium)
20.9 g of Ebecryl® 150 (bisphenol A derivative diacrylate from UCB, Belgium)
22.5 g Irgalit blue GLO (Cu-phthalocyanine pigment from Ciba Specialty Chemicals)
as §2

[5] = photoinitiator conc 3.0 % by weight on the stock paste
[6] = photoinitiator conc 4.0 % by weight on the stock paste

| Structure (SMILES) | curing rate (m/min) for surface cure ([1]; conc 3.0 %) | curing rate (m/min) for through cure ([1]; conc 3.0 %) | curing rate (m/min) for surface cure ([1]; conc 4.0 %) | curing rate (m/min) for through cure ([1]; conc 4.0 %) | curing rate (m/min) for surface cure [2] | curing rate (m/min) for through cure [2] | solubility [3] | solubility [4, 5] | solubility [4, 6] | melting point | efficiency as a photoinitiator compared with the reference compounds ([1]; blue offset printing ink, versus Irgacure 369 and Irgacure 907) |
| --- | --- | --- | --- | --- | --- | --- | --- | --- | --- | --- | --- |
| CCC(Cc1ccccc1)(C(=O)c1ccc(N2CCOCC2)cc1)N(C)C (stereo not shown) [Irgacure 369, 2-benzyl-2-(dimethylamino)-1-[4-(4-morpholinyl)phenyl]-1-butanone] | 70 m/min | 110 m/min | 90 m/min | 130 m/min | 170 m/min | 90 m/min | + | − | − |  |  |
| CC(C)(C(=O)c1ccc(NCCO)cc1)N1CCOCC1 [Example 6, 1-[4-(2-hydroxyethyamino)phenyl]-2-methyl-2-(morpholin-4-yl)-1-propanone] |  |  |  |  |  |  |  |  |  | 77 to 78 °C |  |
| CCC(Cc1ccccc1)(C(=O)c1ccc(NCCO)cc1)N(C)C (stereo not shown) [Example 1, 2-benzyl-1-[4-(2-hydroxyethylamino)phenyl]-2-dimethylamino-1-butanone] | 100 m/min | 120 m/min | 140 m/min | 170 m/min | 200 m/min | 40 m/min | + | + | + | 109 to 111 °C | more efficient as a photoinitiator than the reference compounds |
| CSc1ccc(C(=O)C(C)(C)N2CCOCC2)cc1 [Irgacure 907] |  |  | 80 m/min | 90 m/min |  |  |  |  | + |  |  |
| CCCC(CC)(C(=O)c1ccc(NCCO)cc1)N(C)C (stereo not shown) |  |  |  |  |  |  |  |  |  | 74 to 77 °C |  |
